Earlier results in patent publication US6518254B1, “Ribonucleoside-TRIBOSE” (priority 2002, dated 2003).

Legend:
[1] = compared with Ribavirin
DNA and RNA viruses = settings: in vitro tissue culture; at least 16 DNA and RNA viruses; Science, 177, 705, 1972

Row | SMILES | immuno-modulatory activity [1] | antiviral activity in tissue culture (DNA and RNA viruses)
1 | NC(=O)c1ncn([C@H]2O[C@@H](CO)[C@H](O)[C@@H]2O)n1 (single isomer, unassigned) [L isomer of Ribavirin] | immuno-modulatory activity similar to Ribavirin | –
2 | NC(=O)c1ncn([C@@H]2O[C@H](CO)[C@@H](O)[C@H]2O)n1 [Ribavirin, 1-beta-D-ribofuranosyl-1H-1,2,4-triazole-3-carboxamide] | – | active against at least 16 DNA and RNA viruses
